According to patent US20140127202A1, “ANTITUMOUR COMBINATIONS CONTAINING A VEGF INHIBITING AGENT AND IRINOTECAN” (Aventis Pharma S.A., priority 2007, published 2014):

How the values were obtained:
[1] = Antitumor activity and toxicity in mice grafted subcutaneously with HCT116 human tumor fragments; format: in vivo; details: mouse, in vivo, iv; irinotecan alone, i.v. twice a day on days 12, 15, 18; read-out: maximum tolerated dose, total injected dose
Description: (§1) This effectiveness can be quantified, for example, by the log10 cell kill, which is determined according to the following equation:
(§2) log10 cell kill=T-C (days)/3.34×Td
(§3) in which T-C represents the delay in growth of the cells, which is the average time, in days, for the tumors of the treated group (T) and the tumors of the control group (C) to have reached a predetermined value (1 g for example), and Td represents the time, in days, necessary for the volume of the tumor to double in the control animals [T. H. Corbett et al., Cancer, 40, 2660.2680 (1977); F. M. Schabel et al., Cancer Drug Development, Part B, Methods in Cancer Research, 17, 3-51, New York, Academic Press Inc. (1979)]. A product is considered to be active if log10 cell kill is greater than or equal to 0.7. A product is considered to be very active if log10 cell kill is greater than 2.8.
(§4) The combination, used at its own maximum tolerated dose, in which each of the constituents is present at a dose generally less than or equal to its maximum tolerated dose, will show therapeutic synergy when the log10 cell kill is greater than the value of the log10 cell kill of the best constituent when it is administered alone, and in particular has a superiority of at least one log cell kill.
(§5) The effectiveness of the combinations on solid tumors can be determined experimentally in the following way:
(§6) The animals subjected to the experiment, generally mice, are grafted bilaterally, subcutaneously, with 30 to 60 mg of an HCT116 human tumor fragment (Brattain, M. G., Fine, W. D., Khaled, F. M., Thompson, J. and Brattain, D. E., Heterogeneity of malignant cells from a human colonic carcinoma. Cancer Res., 1981, 41, 1751-1756) on day 0. The animals bearing the tumors are randomized before being subjected to the various treatments and controls. In the case of treatment of tumors of the present invention, the tumors were allowed to develop to a size of between 48 and 294 mg, which made it possible to have a median tumor per group of between 129 and 162 mg. […] Animals bearing tumors were also subjected to the same treatments with the excipient alone in order to be able to dissociate the toxic effect of the excipient from the actual effect of the chemotherapy on the tumor. The chemotherapy was begun on day 12 after the tumor graft. The VEGF Trap injections were given subcutaneously simultaneously with the irinotecan injections, which themselves were given intravenously, according to a daily double injection. These injections were carried out on days 12, 15 and 18 after implantation of the tumor. The various groups of animals are weighed three to four times per week until the maximum weight loss is reached, and then the groups are weighed at least once a week until the end of the trial.
(§7) The tumors are measured two or three times a week until the tumor reaches approximately 2 g or until the death of the animal if the latter occurs before the tumor reaches 2 g. The animals are autopsied at the time of sacrifice.
(§8) The antitumor activity is determined according to the various parameters recorded.
(§9) Vials of 1 cm^3 containing 25 mg of VEGF Trap which are diluted in a buffer of 5 mM phosphate, 5 mM sodium citrate, 100 mM sodium chloride, polysorbate 20 and 20% sucrose are prepared according to the usual technique, for subcutaneous administration. The administration volume per mouse is 0.1 ml. The VEGF Trap is administered once a day, on days 12, 15 and 18 after implantation of the tumor.
(§10) 0.3 ml per mouse is prepared, according to the usual technique, for intravenous administration, from a commercially available solution at 20 mg/ml of irinotecan to be diluted with 5% dextrose in water.
(§11) These solutions are administered simultaneously, after a suitable dilution.
(§12) The treatment with irinotecan is repeated twice a day, with a 4-hour interval, on days 12, 15 and 18 after implantation of the tumor.
(§13) Tumor doubling time=3.2 days.
(§14) Abbreviations used: (T-C) delay in growth of the tumor, Ick=log cell kill.

HCT116 human tumor = assay: as above; format: in vivo
Description: as §1, §2, §3, §4, §5, §6, §7, §8, §9, §10, §11, §12, §13, §14

VEGF-A = target: T1, VEGF-A (Homo sapiens, UniProt P15692); details: in comparison with Avastin (bevacizumab); cited from earlier work
T1 sequence (P15692 207-395 limits assumed): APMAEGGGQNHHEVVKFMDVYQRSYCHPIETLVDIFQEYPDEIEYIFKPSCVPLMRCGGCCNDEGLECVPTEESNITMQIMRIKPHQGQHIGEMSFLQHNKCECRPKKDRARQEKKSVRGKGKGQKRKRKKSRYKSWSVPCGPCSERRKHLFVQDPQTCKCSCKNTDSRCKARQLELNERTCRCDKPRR

[2] = target: PIGF (placental growth factor) (Homo sapiens, UniProt P49763); details: cited from earlier work
Chain of PIGF (placental growth factor) (P49763 19-221): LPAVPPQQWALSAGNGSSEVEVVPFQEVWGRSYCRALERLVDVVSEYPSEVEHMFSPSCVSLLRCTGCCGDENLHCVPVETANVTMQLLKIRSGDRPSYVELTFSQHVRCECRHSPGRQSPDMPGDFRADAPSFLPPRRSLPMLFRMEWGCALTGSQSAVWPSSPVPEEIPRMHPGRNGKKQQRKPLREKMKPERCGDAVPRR

VEGF-B = VEGF-B (Homo sapiens, UniProt P49765); details: cited from earlier work
Chain of VEGF-B (P49765 22-207, species assumed): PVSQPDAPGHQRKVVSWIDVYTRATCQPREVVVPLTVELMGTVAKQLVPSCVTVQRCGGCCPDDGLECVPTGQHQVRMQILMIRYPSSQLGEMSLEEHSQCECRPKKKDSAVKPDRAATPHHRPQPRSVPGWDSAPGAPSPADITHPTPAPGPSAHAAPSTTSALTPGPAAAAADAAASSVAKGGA

[3] = CPT-11 alone, 12.5 mg/kg per injection i.v., 2x/d days 12, 15, 18, total 75.0 mg/kg, group 9
[4] = CPT-11 alone, 20.2 mg/kg per injection i.v., 2x/d days 12, 15, 18, total 121.2 mg/kg, group 8
[5] = CPT-11 alone, 32.5 mg/kg per injection i.v., 2x/d days 12, 15, 18, total 195.0 mg/kg, group 7
[6] = VEGF Trap alone, 2.5 mg/kg s.c. days 12, 15, 18, total 7.5 mg/kg, group 5
[7] = VEGF Trap alone, 10.0 mg/kg s.c. days 12, 15, 18, total 30.0 mg/kg, group 4
[8] = VEGF Trap alone, 25.0 mg/kg s.c. days 12, 15, 18, total 75.0 mg/kg, group 3
[9] = VEGF Trap alone, 40.0 mg/kg s.c. days 12, 15, 18, total 120.0 mg/kg, group 2

Q: Which results are given for `CCc1c2c(nc3ccc(OC(=O)N4CCC(N5CCCCC5)CC4)cc13)-c1cc3c(c(=O)n1C2)COC(=O)[C@]3(O)CC` [CPT-11, irinotecan]?
A: MTD [1]: 75 mg/kg; Average time for the tumor to reach 750 mg (HCT116 human tumor; [3]): 37.6 days; Comments (activity) (HCT116 human tumor; [3]): active; Comments (dose level) (HCT116 human tumor; [3]): HNTD; Death due to the product, with day of death (HCT116 human tumor; [3]): 0/8; Log cell kill (HCT116 human tumor; [3]): 1.8; Survivors without tumor at day 144 (HCT116 human tumor; [3]): 0/8; T-C (HCT116 human tumor; [3]): 19.1 days; Weight loss of the mouse (date of low-point) (HCT116 human tumor; CPT-11 alone, 12.5 mg/kg per injection i.v., 2x/d days 12, 15, 18, total 75.0 mg/kg, group 9, low-point day 21): −15.9%; Comments (HCT116 human tumor; [4]): Toxic; Death due to the product, with day of death (HCT116 human tumor; [4]): 0/8; Comments (HCT116 human tumor; CPT-11 alone, 20.2 mg/kg per injection i.v., 2x/d days 12, 15, 18, total 121.2 mg/kg, group 8, listed as irinotecan): Toxicity was observed; Weight loss of the mouse (date of low-point) (HCT116 human tumor; CPT-11 alone, 20.2 mg/kg per injection i.v., 2x/d days 12, 15, 18, total 121.2 mg/kg, group 8, low-point day 19): −21.9%; Weight loss of the mouse (date of low-point) (HCT116 human tumor; CPT-11 alone, 20.2 mg/kg per injection i.v., 2x/d days 12, 15, 18, total 121.2 mg/kg, group 8, low-point day 19, listed as irinotecan): greater than 20%; Comments (HCT116 human tumor; [5]): Toxic; Death due to the product, with day of death (HCT116 human tumor; [5]): 0/7; Comments (HCT116 human tumor; CPT-11 alone, 32.5 mg/kg per injection i.v., 2x/d days 12, 15, 18, total 195.0 mg/kg, group 7, listed as irinotecan): Toxicity was observed; Weight loss of the mouse (date of low-point) (HCT116 human tumor; CPT-11 alone, 32.5 mg/kg per injection i.v., 2x/d days 12, 15, 18, total 195.0 mg/kg, group 7, low-point day 19): −23.1%; Weight loss of the mouse (date of low-point) (HCT116 human tumor; CPT-11 alone, 32.5 mg/kg per injection i.v., 2x/d days 12, 15, 18, total 195.0 mg/kg, group 7, low-point day 19, listed as irinotecan): greater than 20%; Death due to the product, with day of death (HCT116 human tumor; CPT-11 alone, 52.4 mg/kg per injection i.v., 2x/d (4 h apart) days 12, 15, 18, total 314.4 mg/kg, group 6, day of death 23): 1/8 (23); Death due to the product, with day of death (HCT116 human tumor; CPT-11 alone, 52.4 mg/kg per injection i.v., 2x/d (4 h apart) days 12, 15, 18, total 314.4 mg/kg, group 6, day of death 23, listed as irinotecan): a death; Comments (HCT116 human tumor; CPT-11 alone, 52.4 mg/kg per injection i.v., 2x/d days 12, 15, 18, total 314.4 mg/kg, group 6): Toxic; Comments (HCT116 human tumor; CPT-11 alone, 52.4 mg/kg per injection i.v., 2x/d days 12, 15, 18, total 314.4 mg/kg, group 6, listed as irinotecan): Toxicity was observed; Weight loss of the mouse (date of low-point) (HCT116 human tumor; CPT-11 alone, 52.4 mg/kg per injection i.v., 2x/d days 12, 15, 18, total 314.4 mg/kg, group 6, low-point day 21): −27.0%; maximum tolerated dose (HCT116 human tumor; irinotecan alone, i.v. twice a day on days 12, 15, 18): 12.5 mg/kg/inj

Q: For “VEGF Trap: fusion protein: D2 Ig domain of VEGFR1 fused to D3 Ig domain of VEGFR2, fused to the Fc domain of IgG1”, which “Average time for the tumor to reach 750 mg” value (shortened to “Average time for the tumor”) (HCT116 human tumor; [6]) is on record?
A: Its value is 20.2 days.

Q: What about the “Comments (activity)” value (HCT116 human tumor; [6]) of the same compound?
A: The value was “inactive”.

Q: And the “Death due to the product, with day of death” value (shortened to “Death due to the product”) (HCT116 human tumor; [6])?
A: The value was 0/8.

Q: What about the Log cell kill (HCT116 human tumor; [6]) of the same compound?
A: Its Log cell kill is 0.2.

Q: What about the “Survivors without tumor at day 144” value (HCT116 human tumor; [6]) of the same compound?
A: The value was 0/8.

Q: What about the T-C (HCT116 human tumor; [6]) of the same compound?
A: The T-C was 1.7 days.

Q: And the “Weight loss of the mouse (date of low-point)” value (“Weight loss of the mouse” below) (HCT116 human tumor; VEGF Trap alone, 2.5 mg/kg s.c. days 12, 15, 18, total 7.5 mg/kg, group 5, low-point day 19)?
A: Its value is −8.3 (19) %.

Q: And the “Average time for the tumor” value (HCT116 human tumor; [7])?
A: The value was 32.0 days.

Q: And the “Comments (activity)” value (HCT116 human tumor; [7])?
A: The value was “active”.

Q: And the “Death due to the product” value (HCT116 human tumor; [7])?
A: The value was 0/8.

Q: What about the Log cell kill (HCT116 human tumor; [7]) of the same compound?
A: Its Log cell kill is 1.3.

Q: And the “Survivors without tumor at day 144” value (HCT116 human tumor; [7])?
A: The value was 1/8.

Q: And the T-C (HCT116 human tumor; [7])?
A: Its T-C is 13.5 days.

Q: And the “Weight loss of the mouse” value (HCT116 human tumor; VEGF Trap alone, 10.0 mg/kg s.c. days 12, 15, 18, total 30.0 mg/kg, group 4, low-point day 19)?
A: The value was −5.0 (19) %.

Q: What about the “Average time for the tumor” value (HCT116 human tumor; [8]) of the same compound?
A: The value was 36.8 days.

Q: And the “Comments (activity)” value (HCT116 human tumor; [8])?
A: The value was “active”.

Q: What about the “Death due to the product” value (HCT116 human tumor; [8]) of the same compound?
A: Its value is 0/8.

Q: What about the Log cell kill (HCT116 human tumor; [8]) of the same compound?
A: The Log cell kill was 1.7.

Q: And the “Survivors without tumor at day 144” value (HCT116 human tumor; [8])?
A: The value was 0/8.

Q: And the T-C (HCT116 human tumor; [8])?
A: Its T-C is 18.3 days.

Q: What about the “Weight loss of the mouse” value (HCT116 human tumor; VEGF Trap alone, 25.0 mg/kg s.c. days 12, 15, 18, total 75.0 mg/kg, group 3, low-point day 13) of the same compound?
A: The value was −2.2 (13) %.

Q: What about the “Average time for the tumor” value (HCT116 human tumor; [9]) of the same compound?
A: The value was 36.8 days.

Q: And the “Death due to the product” value (HCT116 human tumor; [9])?
A: Its value is 0/8.

Q: And the Log cell kill (HCT116 human tumor; [9])?
A: The Log cell kill was 1.7.

Q: And the “Survivors without tumor at day 144” value (HCT116 human tumor; [9])?
A: Its value is 0/8.

Q: What about the T-C (HCT116 human tumor; [9]) of the same compound?
A: The T-C was 18.3 days.

Q: What about the “Comments (activity)” value (HCT116 human tumor; VEGF Trap alone, 40.0 mg/kg s.c. days 12, 15, 18, total 120.0 mg/kg, group 2 (HDT)) of the same compound?
A: Its value is “active”.

Q: And the “Weight loss of the mouse” value (HCT116 human tumor; VEGF Trap alone, 40.0 mg/kg s.c. days 12, 15, 18, total 120.0 mg/kg, group 2, low-point day 13)?
A: The value was −3.1 (13) %.

Q: What about the tolerability (HCT116 human tumor; VEGF Trap alone, all the dosages tested (2.5 to 40 mg/kg/administration s.c.)) of the same compound?
A: The tolerability was “well-tolerated”.

Q: What about the “affinity for VEGF-A compared with Avastin” value (VEGF-A) of the same compound?
A: The value was “much higher affinity”.

Q: What about the “binding to PIGF (selectivity profile)” value [2] of the same compound?
A: Its value is “also binds”.

Q: What about the “binding to VEGF-B (selectivity profile)” value (VEGF-B) of the same compound?
A: The value was “also binds”.
